{"source": "paper PMC11880984", "about": "“Altered O‐glycosylation of β1‐adrenergic receptor N‐terminal single‐nucleotide variants modulates receptor processing and functional activity” (The Febs Journal, 2024)", "biological_target": "T1, hβ1AR (human β1-adrenergic receptor), WT S49 R389 (Homo sapiens, UniProt P08588)", "T1 construct": "gene ADRB1; full-length WT (S49, R389) with HA signal peptide, N-terminal MYC tag and C-terminal FLAG tag (pFT-SMMF); N-terminal part partly cleaved at R31/L32 in cells", "T1 sequence (P08588 whole entry G389R)": "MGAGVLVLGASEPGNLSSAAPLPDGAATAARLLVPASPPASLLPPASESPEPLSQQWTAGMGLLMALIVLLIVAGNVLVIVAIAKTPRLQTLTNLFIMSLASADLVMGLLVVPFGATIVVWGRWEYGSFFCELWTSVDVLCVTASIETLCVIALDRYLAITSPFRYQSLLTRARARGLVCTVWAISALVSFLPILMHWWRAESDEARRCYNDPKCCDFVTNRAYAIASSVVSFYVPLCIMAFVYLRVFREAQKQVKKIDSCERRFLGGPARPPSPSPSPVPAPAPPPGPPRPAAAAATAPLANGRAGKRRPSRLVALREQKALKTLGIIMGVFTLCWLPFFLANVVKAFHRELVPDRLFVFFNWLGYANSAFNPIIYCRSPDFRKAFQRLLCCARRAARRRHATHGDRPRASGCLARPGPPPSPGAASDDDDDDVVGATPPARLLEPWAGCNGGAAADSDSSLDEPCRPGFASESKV", "assay": "radioligand saturation binding, membranes of stable HEK293i cells"}
{"compound": "CCCc1ccccc1OCC(O)CNC(C)C", "note": "(stereo not shown) [[^3H]dihydroalprenolol]", "values": [{"measurement": "Kd", "value": "0.42 ± 0.04", "unit": "nM"}]}
